≈ marks a conversion by molar mass, not a printed value. Calls of active or inactive are those of the source. No cut-off for these calls is given here.
Tests used:
Type in all cases: functional
Pseudomonas aeruginosa [1] = test: Antibacterial activity against Pseudomonas aeruginosa ATCC 27853 by microdilution method
Micrococcus flavus [2] = test: Antibacterial activity against Micrococcus flavus ATCC 10240 by microdilution method
Micrococcus flavus [3] = test: Bactericidal activity against Micrococcus flavus ATCC 10240 by microdilution method
Listeria monocytogenes [4] = test: Antibacterial activity against Listeria monocytogenes NCTC 7973 by microdilution method
Pseudomonas aeruginosa [5] = test: Antibiofilm activity against Pseudomonas aeruginosa PAO1 assessed as inhibition of biofilm formation at 0.125 times MIC incubated for 24 hrs by crystal violet staining based ELISA method
Pseudomonas aeruginosa [6] = test: Antibiofilm activity against Pseudomonas aeruginosa PAO1 assessed as inhibition of biofilm formation at 0.25 times MIC incubated for 24 hrs by crystal violet staining based ELISA method
Escherichia coli [7] = test: Antibacterial activity against Escherichia coli ATCC 35210 by microdilution method
Pseudomonas aeruginosa [8] = test: Bactericidal activity against Pseudomonas aeruginosa ATCC 27853 by microdilution method
Pseudomonas aeruginosa [9] = test: Antibiofilm activity against Pseudomonas aeruginosa PAO1 assessed as inhibition of biofilm formation at 0.5 times MIC incubated for 24 hrs by crystal violet staining based ELISA method
Escherichia coli [10] = test: Bactericidal activity against Escherichia coli ATCC 35210 by microdilution method
Listeria monocytogenes [11] = test: Bactericidal activity against Listeria monocytogenes NCTC 7973 by microdilution method

SMILES	MIC (Pseudomonas aeruginosa [1]) [µM]	MIC (Micrococcus flavus [2]) [µM]	MBC (Micrococcus flavus [3]) [µM]	MIC (Listeria monocytogenes [4]) [µM]	inhibition (INH) (Pseudomonas aeruginosa [5]) [%]	inhibition (INH) (Pseudomonas aeruginosa [6]) [%]	MIC (Escherichia coli [7]) [µM]	MBC (Pseudomonas aeruginosa [8]) [µM]	inhibition (INH) (Pseudomonas aeruginosa [9]) [%]	MBC (Escherichia coli [10]) [µM]	MBC (Listeria monocytogenes [11]) [µM]	inhibition (Pseudomonas aeruginosa [5])
CC1(C)[C@@H](O[C@H]2OC[C@H](O)[C@H](O)[C@H]2O[C@H]2O[C@H](CO)[C@@H](O)[C@H](O)[C@H]2OS(=O)(=O)O)CC[C@]2(C)[C@H]3CC=C4[C@@H]5C[C@@](C)(C=O)CC[C@]5(C(=O)O[C@H]5O[C@H](CO)[C@@H](O)[C@H](O)[C@H]5O)CC[C@@]4(C)[C@]3(C)CC[C@@H]12	994 (≈ 1000 µg/mL)	596 (≈ 601 µg/mL)	1190 (≈ 1200 µg/mL)	1990 (≈ 2000 µg/mL)	7.2	45.9	497 (≈ 501 µg/mL)	1190 (≈ 1200 µg/mL)	56.6	596 (≈ 601 µg/mL)	2490 (≈ 2500 µg/mL)	–
COc1cc(/C=C/C(=O)OC[C@@]2(O)CO[C@@H](O[C@H]3[C@@H](Oc4c(-c5ccc(O)c(O)c5)oc5cc(O)c(OC)c(O)c5c4=O)O[C@H](CO)[C@@H](O)[C@@H]3O)[C@@H]2O)ccc1O	312 (≈ 250 µg/mL)	312 (≈ 250 µg/mL)	623 (≈ 500 µg/mL)	935 (≈ 751 µg/mL)	–	4.3	499 (≈ 400 µg/mL)	623 (≈ 500 µg/mL)	20.1	623 (≈ 500 µg/mL)	1250 (≈ 1000 µg/mL)	inactive
CC1(C)[C@@H](O[C@H]2OC[C@H](O)[C@H](O)[C@H]2O[C@H]2O[C@H](CO)[C@@H](O)[C@H](O)[C@H]2O[C@H]2O[C@H](CO)[C@@H](O)[C@H](O)[C@H]2O)CC[C@]2(C)[C@H]3CC=C4[C@@H]5C[C@@](C)(C=O)CC[C@]5(C(=O)O[C@H]5O[C@H](CO)[C@@H](O)[C@H](O)[C@H]5O)CC[C@@]4(C)[C@]3(C)CC[C@@H]12	689 (≈ 751 µg/mL)	919 (≈ 1000 µg/mL)	1380 (≈ 1500 µg/mL)	1150 (≈ 1250 µg/mL)	–	39.4	919 (≈ 1000 µg/mL)	1380 (≈ 1500 µg/mL)	53.4	1380 (≈ 1500 µg/mL)	1840 (≈ 2000 µg/mL)	inactive
COc1cc(/C=C/C(=O)O[C@H]2[C@H](O[C@H]3[C@@H](Oc4c(-c5ccc(O)c(O)c5)oc5cc(O)c(OC)c(O)c5c4=O)O[C@H](CO)[C@@H](O)[C@@H]3O)O[C@@H](C(=O)O)[C@@H](O)[C@@H]2O)ccc1O	296 (≈ 250 µg/mL)	296 (≈ 250 µg/mL)	473 (≈ 400 µg/mL)	886 (≈ 751 µg/mL)	1.8	26.2	591 (≈ 500 µg/mL)	473 (≈ 400 µg/mL)	43	1180 (≈ 1000 µg/mL)	1180 (≈ 1000 µg/mL)	–
CN[C@@H]1[C@H](O[C@H]2[C@H](O[C@H]3[C@H](O)[C@@H](O)[C@H](N=C(N)N)[C@@H](O)[C@@H]3N=C(N)N)O[C@@H](C)[C@]2(O)C=O)O[C@@H](CO)[C@H](O)[C@H]1O [STREPTOMYCIN]	344 (≈ 200 µg/mL)	344 (≈ 200 µg/mL)	516 (≈ 300 µg/mL)	344 (≈ 200 µg/mL)	89.3	74.6	344 (≈ 200 µg/mL)	516 (≈ 300 µg/mL)	52.5	516 (≈ 300 µg/mL)	516 (≈ 300 µg/mL)	–
CC1(C)S[C@@H]2[C@H](NC(=O)[C@H](N)c3ccccc3)C(=O)N2[C@H]1C(=O)O [AMPICILLIN]	2150 (≈ 751 µg/mL)	716 (≈ 250 µg/mL)	1150 (≈ 400 µg/mL)	1150 (≈ 400 µg/mL)	85.2	58.9	716 (≈ 250 µg/mL)	3580 (≈ 1250 µg/mL)	65.3	1430 (≈ 501 µg/mL)	1430 (≈ 501 µg/mL)	–
COc1c(O)cc2oc(-c3ccc(O)c(O)c3)c(O[C@H]3O[C@H](CO)[C@@H](O)[C@H](O)[C@H]3O[C@@H]3OC[C@](O)(CO)[C@H]3O)c(=O)c2c1O	399 (≈ 250 µg/mL)	399 (≈ 250 µg/mL)	639 (≈ 400 µg/mL)	639 (≈ 400 µg/mL)	–	12.2	399 (≈ 250 µg/mL)	639 (≈ 400 µg/mL)	58.1	639 (≈ 400 µg/mL)	1200 (≈ 751 µg/mL)	inactive
CC1(C)[C@@H](O[C@H]2OC[C@H](O)[C@H](O)[C@H]2O[C@H]2O[C@H](CO)[C@@H](O)[C@H](O)[C@H]2OS(=O)(=O)O)CC[C@]2(C)[C@H]3CC=C4[C@@H]5C[C@@](C)(CO)CC[C@]5(C(=O)O[C@H]5O[C@H](CO)[C@@H](O)[C@H](O)[C@H]5O)CC[C@@]4(C)[C@]3(C)CC[C@@H]12	496 (≈ 501 µg/mL)	–	–	–	12.5	21.9	–	744 (≈ 751 µg/mL)	26.5	–	–	–
